Assay results reported in patent US7723376B2, “2-oxo-heterocyclic compounds and pharmaceutical compositions” (Korea Research Institute of Bioscience and Biotechnology, priority 2003, dated 2010).

System: PC-3 cells
Experiment: Tumor cell growth inhibition, sulforhodamine B (SRB) staining
Type: cell-based
Settings: PC-3 human prostatic carcinoma cells, 48 hrs, absorbance 540 nm, adriamycin as positive control
Procedure: PC-3 cells (ATCC, US), human prostatic carcinoma cell line, were cultured in RMPI 1640 supplemented with 10% fetal bovine serum.
Appropriate concentrations of cells (5×10^4 cells/ml) cultured in RMPI 1640 supplemented with 5% fetal bovine serum were poured into 96-well plate and incubated at 37° C. in 5% CO2 condition. The day after the incubation, PC-3 cells were fixed on Time zero (T0) plate by adding 50 μl/well of 50% trichloroacetic acid and the cell concentration was set to zero point by fixing the cells. In the cells treated with test samples, 50% TCA was added to each wells in 50 ul/well after 48 hrs to fix the cells. The final concentration of adding test compounds were 0.01, 0.03, 0.1, 0.3, 1 μg/ml respectively. Then, each fixed plate was washed, dried and 100 μl/well of 0.4% reaction solution containing sulforhodamine B (SRB) reagent dissolved in 0.1% acetic acid was added thereto to stain the cells. 30 minutes later, the cell was washed with 0.1% acetic acid, dried at room temperature, and 10 mM of TRIS base (pH 10.5) was added thereto to dissolve the staining agent. Finally, the absorbance detected at 540 nm was measured and the value was conversed into percentage comparing with that of control group. IC50 (μg/ml), the concentration of the group required to inhibit the cancer cell growth by 50%, was calculated from the data (AA: IC50's<1, A: IC50's<5, B: IC50's<10 and C: IC50's>10). Also, the inhibiting activity of cell growth was expressed as various symbols in accordance with the potency of examples e.g., AA: closely equivalent (1˜2 times), A: slightly weaker (3˜5 times), B: weaker (5˜10 times), C: very weaker (more than 10 times) than that of adriamycin used as a positive control group.

IC50 [µg/mL] | Structure (SMILES)
< 5 | O=C(CCC1=CCN(CCc2ccccc2Br)C1=O)NO [Example 34, 3-{1-[2-(2-bromo-phenyl)-ethyl]-2-oxo-2,5-dihydro-1H-pyrrol-3-yl}-N-hydroxy-propionamide]
< 10 | O=C(CCC1=CCCN(CCc2ccccc2)C1=O)NO [Example 60]
< 5 | O=C(CCC1=CCN(CCc2ccccc2F)C1=O)NO [Example 28, 3-{1-[2-(2-fluoro-phenyl)-ethyl]-2-oxo-2,5-dihydro-1H-pyrrol-3-yl}-N-hydroxy-propionamide]
> 10 | O=C(CC1CCN(Cc2ccccc2)C1=O)NO (stereo not drawn) [Example 25, 2-(1-benzyl-2-oxo-pyrrolidin-3-yl)-N-hydroxy-acetamide]
> 10 | O=C(CCC1=CCCCN(CCCc2ccccc2)C1=O)NO [Example 106, N-Hydroxy-3-[2-oxo-1-(3-phenyl-ethyl)-2,5,6,7-tetrahydro-1H-azepin-3-yl]-propionamide]
< 5 | O=C(CCC1=CCN(Cc2ccc3ccccc3c2)C1=O)NO [Example 49, N-hydroxy-3-(1-naphthalene-2-ylmethyl-2-oxo-2,5-dihydro-1H-pyrrol-3-yl)-propionamide]
< 1 | COc1ccc(CN2CC=C(CCC(=O)NO)C2=O)cc1 [Example 11, N-hydroxy-3-[1-(4-methoxy-benzyl)-2-oxo-2,5-dihydro-1H-pyrrol-3-yl]-propionamide]
< 5 | Cc1cccc(CN2CC=C(CCC(=O)NO)C2=O)c1 [Example 7, N-hydroxy-3-[1-(3-methyl-benzyl)-2-oxo-2,5-dihydro-1H-pyrrol-3-yl]-propionamide]
< 10 | O=C(CCC1=CCN(Cc2ccc(NC(=O)c3ccccc3)cc2)C1=O)NO [Example 18, N-{4-[3-(2-hydroxycarbamoyl-ethyl)-2-oxo-2,5-dihydro-pyrrole-1-yl-methyl]-phenyl}-benzamide]
> 10 | O=C(CC1=CCN(CCCCc2ccccc2)C1=O)NO [Example 23, N-hydroxy-2-[2-oxo-1-(4-phenyl-butyl)-2,5-dihydro-1H-pyrrol-3-yl]-acetamide]
< 5 | O=C(CCC1=CCN(CCc2cccs2)C1=O)NO [Example 54, N-hydroxy-3-[2-oxo-1-(2-thiophen-2-yl-ethyl)-2,5-dihydro-1H-pyrrol-3-yl]-propionamide]
> 10 | O=C(CC1CCN(CCc2ccccc2)C1=O)NO (stereo not drawn) [Example 27, N-hydroxy-2-(2-oxo-1-phenethyl-pyrrolidin-3-yl)-acetamide]
< 10 | Cc1ccccc1CN1CC=C(CCC(=O)NO)C1=O [Example 6, N-hydroxy-3-[1-(2-methyl-benzyl)-2-oxo-2,5-dihydro-1H-pyrrol-3-yl]-propionamide]
< 5 | COc1ccccc1CN1CC=C(CCC(=O)NO)C1=O [Example 9, N-hydroxy-3-[1-(2-methoxy-benzyl)-2-oxo-2,5-dihydro-1H-pyrrol-3-yl]-propionamide]
< 5 | Cc1ccc(CCCN2CC=C(CCC(=O)NO)C2=O)cc1 [Example 40, N-hydroxy-3-[2-oxo-1-(3-p-tolyl-propyl)-2,5-dihydro-1H-pyrrol-3-yl]-propionamide]
< 10 | O=C(CCC1=CCN(Cc2ccc(OCc3ccccc3)cc2)C1=O)NO [Example 14, 3-[1-(4-benzyloxy-benzyl)-2-oxo-2,5-dihydro-1H-pyrrol-3-yl]-N-hydroxy-propionamide]
> 10 | COc1ccc(CN2CCCC(CC(=O)NO)C2=O)c(OC)c1 (stereo not drawn) [Example 92, 2-[1-(2,4-dimethoxy-benzyl)-2-oxo-piperidine-3-yl]-N-hydroxy-acetamide]
> 10 | CN1CCC=C(CCC(=O)NO)C1=O [Example 102, N-hydroxy-3-(1-methyl-2-oxo-1,2,5,6-tetrahydro-pyridin-3-yl)-propionamide]
> 10 | COc1ccc(CN2CCC=C(CCC(=O)O)C2=O)c(OC)c1 [Example 63, 3-[1-(2,4-dimethoxybenzyl)-2-oxo-1,2,5,6-tetrahydro-pyridin-3-yl)-propionic acid]
< 5 | Cc1ccc(CCN2CC=C(CCC(=O)NO)C2=O)cc1 [Example 39, N-hydroxy-3-[2-oxo-1-(2-p-tolyl-ethyl)-2,5-dihydro-1H-pyrrol-3-yl]-propionamide]
> 10 | COc1ccc(CN2CC=C(CCC(=O)O)C2=O)c(OC)c1 [Example 16, 3-[1-(2,4-dimethoxy-benzyl)-2-oxo-2,5-dihydro-1H-pyrrol-3-yl]-propionic acid]

IC50 [µg/mL] | Structure (SMILES)
> 10 | O=C(CC1=CCN(Cc2ccc(OCc3ccccc3)cc2)C1=O)NO [Example 24, 2-[1-(4-benzyloxy-benzyl)-2-oxo-2,5-dihydro-1H-pyrrol-3-yl]-N-hydroxy-acetamide]
< 5 | O=C(CCC1=CCN(CCc2ccc(Br)cc2)C1=O)NO [Example 35, 3-{1-[2-(4-bromo-phenyl)-ethyl]-2-oxo-2,5-dihydro-1H-pyrrol-3-yl}-N-hydroxy-propionamide]
> 10 | COc1ccc(CN2CCC=C(CC(=O)NO)C2=O)c(OC)c1 [Example 82, 2-[1-(2,4-dimethoxy-benzyl)-2-oxo-1,2,5,6-tetrahydro-pyridin-3-yl]-N-hydroxy-acetamide]
> 10 | O=C(CC1=CCCN(Cc2ccccc2)C1=O)NO [Example 83, 2-(1-benzyl-2-oxo-1,2,5,6-tetrahydro-pyridin-3-yl)-N-hydroxy-acetamide]
< 5 | O=C(CCC1=CCN(CCc2ccc([N+](=O)[O-])cc2)C1=O)NO [Example 33, N-hydroxy-3-{1-[2-(4-nitro-phenyl)-ethyl]-2-oxo-2,5-dihydro-1H-pyrrol-3-yl}-propionamide]
< 5 | CC(C)c1ccc(CCCN2CC=C(CCC(=O)NO)C2=O)cc1 [Example 43, N-hydroxy-3-{1-[3-(4-isopropyl-phenyl)-propyl]-2-oxo-2,5-dihydro-1H-pyrrol-3-yl]-propionamide]
< 1 | Cc1cccc(CCCN2CC=C(CCC(=O)NO)C2=O)c1 [Example 42, N-hydroxy-3-[2-oxo-1-(3-m-tolyl-propyl)-2,5-dihydro-1H-pyrrol-3-yl]-propionamide]
< 1 | CN1CC=C(CCC(=O)NO)C1=O [Example 50, N-hydroxy-3-(1-methyl-2-oxo-2,5-dihydro-1H-pyrrol-3-yl)-propionamide]
> 10 | COc1ccc(CN2CC=C(CC(=O)NO)C2=O)c(OC)c1 [Example 21, 2-[1-(2,4-dimethoxy-benzyl)-2-oxo-2,5-dihydro-1H-pyrrol-3-yl]-N-hydroxy-acetamide]
< 10 | O=C(CCC1=CCCN(Cc2ccc3ccccc3c2)C1=O)NO [Example 103, N-hydroxy-3-(1-(naphthalene-2-yl-methyl)-2-oxo-1,2,5,6-tetrahydro-pyridin-3-yl)-propionamide]
< 10 | O=C(CCC1=CCCN(Cc2ccccc2)C1=O)NO [Example 58, N-hydroxy-3-(1-benzyl-2-oxo-1,2,5,6-tetrahydro-pyridin-3-yl)-propionic acid]
< 10 | O=C(CCC1=CCCN(Cc2ccc([N+](=O)[O-])cc2)C1=O)NO [Example 59, N-hydroxy-3-[1-(4-nitro-benzyl)-2-oxo-1,2,5,6-tetrahydro-pyridin-3-yl)-propionamide]
> 10 | O=C(CCC1=CCCCN(CCCCc2ccccc2)C1=O)NO [Example 108, N-Hydroxy-3-[2-oxo-1-(4-phenyl-butyl)-2,5,6,7-tetrahydro-1H-azepin-3-yl]-propionamide]
> 10 | O=C(CCC1=CCCN(CCc2ccccc2)C1=O)NOCc1ccccc1 [Example 73, N-benzyloxy-3-(2-oxo-1-phenethyl-1,2,5,6-tetrahydro-pyridin-3-yl)-propionamide]
< 1 | O=C(CCC1=CCN(CCc2ccccc2)C1=O)NO [Example 3, N-hydroxy-3-(2-oxo-1-phenethyl-2,5-dihydro-1H-pyrrol-3-yl)-propionamide]
< 1 | COc1cccc(CN2CC=C(CCC(=O)NO)C2=O)c1 [Example 10, N-hydroxy-3-[1-(3-methoxy-benzyl)-2-oxo-2,5-dihydro-1H-pyrrol-3-yl]-propionamide]
< 5 | COc1ccc(CCN2CC=C(CCC(=O)NO)C2=O)cc1 [Example 38, N-hydroxy-3-{1-[2-(4-methoxy-phenyl)-ethyl]-2-oxo-2,5-dihydro-1H-pyrrol-3-yl}-propionamide]
< 5 | COc1ccc(CN2CC=C(CCC(=O)NO)C2=O)c(OC)c1 [Example 1, 3-[1-(2,4-Dimethoxybenzyl)-2-oxo-2,5-dihydro-1H-pyrrol-3-yl]-N-hydroxypropionamide]
< 10 | COc1ccc(CCCN2CC=C(CCC(=O)NO)C2=O)cc1 [Example 46, N-hydroxy-3-{1-[3-(4-methoxy-phenyl)-propyl]-2-oxo-2,5-dihydro-1H-pyrrol-3-yl]-propionamide]
< 5 | O=C(CCC1=CCN(Cc2ccc(Cl)cc2)C1=O)NO [Example 13, 3-[1-(4-chloro-benzyl)-2-oxo-2,5-dihydro-1H-pyrrol-3-yl]-N-hydroxy-propionamide]
> 10 | O=C(O)CCC1=CCN(Cc2ccccc2)C1=O [Example 17, 3-(1-benzyl-2-oxo-2,5-dihydro-1H-pyrrol-3-yl)-propionic acid]
